Results as given in PMC2215435 (The Journal of General Physiology, 1981).
Read-outs that look alike come from different tables or passages of the source.

Test system: potassium channel
Assay type: cell-based, squid Loligo pealei
Details: for rate constant of block b: calculated from Kd = l/b and tau decay (Table IV); for blocking rate constant K (fit of current with Eq. 2) / unblocking rate constant L (fit of current with Eq. 2) / tau decay: 30 μM; for blocking rate constant K (fit of current with Eq. 2) / unblocking rate constant L (fit of current with Eq. 2): Fig. 1B
[1] = +100 mV, several experiments, Fig. 3B, r = 0.98

Compound	rate constant of unblock l (+60 mV (Table IV)) [ms-1]	rate constant of block b (+60 mV)	rate constant of unblock l (+80 mV (Table IV)) [ms-1]	rate constant of block b (+80 mV)	rate constant of unblock l (+100 mV (Table IV)) [ms-1]	rate constant of block b (+100 mV)	time constant of decay of potassium current (tau decay) (10 μM, +100 mV) [ms]	time constant of decay of potassium current (tau decay) (33 μM, +100 mV) [ms]	time constant of decay of potassium current (tau decay) (100 μM, +100 mV) [ms]	b from straight line 1/tau decay = b[QA] + l [1]	l from straight line 1/tau decay = b[QA] + l [1] [ms-1]	blocking rate constant K (fit of current with Eq. 2) (+60 mV) [ms-1]	unblocking rate constant L (fit of current with Eq. 2) (+60 mV) [ms-1]	blocking rate constant K (fit of current with Eq. 2) (+100 mV) [ms-1]	unblocking rate constant L (fit of current with Eq. 2) (+100 mV) [ms-1]	tau decay (+100 mV, 6 °C) [ms]	tau decay (+100 mV, 8 °C) [ms]	tau decay (+100 mV, 16 °C) [ms]
CCCCCCCC[N+](CC)(CC)CC [CsTE, octyltriethylammonium]	0.038	5.1 ms-1 mM-1	0.038	5.5 ms-1 mM-1	0.043	5.9 ms-1 mM-1												
CC[N+](CC)(CCO)CCCc1ccccc1 [~PDEEtoh, phenylpropyldiethylethanolammonium]	0.024	3.4 ms-1 mM-1	0.037	3.9 ms-1 mM-1	0.033	4.3 ms-1 mM-1												
CCCCCCC[N+](CC)(CC)CC [C7TE, heptyltriethylammonium]	0.071	2.8 ms-1 mM-1	0.072	3.4 ms-1 mM-1	0.063	3.6 ms-1 mM-1												
CCCCCCCCCC[N+](CCC)(CCC)CCC [C10TP, decyltripropylammonium]	0.015	0.13 ms-1 mM-1	0.016	0.15 ms-1 mM-1	0.015	0.17 ms-1 mM-1												
CC[N+](CC)(CC)CCCc1ccccc1 [~PTE, phenylpropyltriethylammonium]	0.015	2.5 ms-1 mM-1	0.013	2.7 ms-1 mM-1	0.025	3.5 ms-1 mM-1												
CCCCCCCC[N+](CCC)(CCC)CCC [CsTP, octyltripropylammonium]	0.021	0.95 ms-1 mM-1	0.031	1.22 ms-1 mM-1	0.039	1.40 ms-1 mM-1												
CCCCCCCC[N+](CC)(CC)CCCO [CsDEProh, octyldiethylpropanolammonium]	0.0236	2.56 ms-1 mM-1	0.0308	3.55 ms-1 mM-1	0.0262	4.10 ms-1 mM-1	11.42	6.88	2.21	4.0 ms-1 mM-1	0.032							
CCCCCCCCC[N+](CC)(CC)CC [C9TE, nonyltriethylammonium]	0.030	5.5 ms-1 mM-1	0.028	6.1 ms-1 mM-1	0.033	7.3 ms-1 mM-1												
CCCCCCCC[N+](CC)(CC)CCO [CsDEEtoh, octyldiethylethanolammonium]		6.2 ms-1 mM-1		8.0 ms-1 mM-1		9.4 ms-1 mM-1						0.162	0.118	0.234	0.112			
CCCCCCCCCC[N+](CCO)(CCO)CCO [C10TEtoh, decyltriethanolammonium]	0.084	0.43 ms-1 mM-1	0.097	0.55 ms-1 mM-1	0.110	0.65 ms-1 mM-1												
CCCCCCCCCC[N+](CC)(CC)CC [C10TE, decyltriethylammonium]	0.019	5.2 ms-1 mM-1	0.019	6.0 ms-1 mM-1	0.023	6.7 ms-1 mM-1										5.78	3.83	2.06
